According to US20190125790A1, “USE OF HYPOCHLOROUS ACID AS A TOPICAL ANTIMICROBIAL” (BIIOSMART TECHNOLOGIES LLC, priority 2016, published 2019):

Experiments:
HIV (non-glp) = test: Antimicrobial efficacy of HOCl skin cleanser (Table 1); format: cell-based; conditions: 0.01% HOCl; 30 seconds
Salmonella enteritidis = test: as above; format: cell-based; conditions: 0.01% HOCl; 30 seconds
Teratogenicity = format: in vivo
Description: (§1) Table 5. contains the results of several acute and sub-chronic toxicity tests.

K. pneumoniae NDM-1 = test: ASTM E2315 Time Kill Assay for Antimicrobial Agents; format: cell-based; conditions: 0.046% HOCl aqueous solution; 30 seconds; high organic load
Experimental: (§2) Table 3. below represents the efficacy of 0.046% aqueous hypochlorous acid solution in the presence of high organic load. ASTM E2315 Time Kill Assay for Antimicrobial Agents. The study was performed in ATS labs in Minnesota recommended by the U.S. FDA's Tentative Final Monograph for OTC Healthcare Antiseptic Drug. […] Additional times were evaluated: 1 minute, 5 minutes, and 10 minutes, all with and without organic soil (Using 10% whole milk and 5% Fetal Bovine Serum). The trend in the efficiency is maintained under the same proportions.

K. pneumoniae - ESBL = test: as above; format: cell-based; conditions: 0.046% HOCl aqueous solution; 30 seconds; high organic load
Experimental: as §2

K. oxytoca = test: as above; format: cell-based; conditions: 0.046% HOCl aqueous solution; 30 seconds; high organic load
Experimental: as §2

S. Epidermidis = test: as above; format: cell-based; conditions: 0.046% HOCl aqueous solution; 30 seconds; high organic load
Experimental: as §2

P. aeruginosa = test: as above; format: cell-based; conditions: 0.046% HOCl aqueous solution; 30 seconds; high organic load
Experimental: as §2

A. baumanii = test: as above; format: cell-based; conditions: 0.046% HOCl aqueous solution; 30 seconds; high organic load
Experimental: as §2

Enterobacter aerogenes = test: as above; format: cell-based; conditions: 0.046% HOCl aqueous solution; 30 seconds; high organic load
Experimental: as §2

Haemophilus influenzae = test: as above; format: cell-based; conditions: 0.046% HOCl aqueous solution; 30 seconds; high organic load
Experimental: as §2

Candida albicans = test: as above; format: cell-based; conditions: 0.046% HOCl aqueous solution; 30 seconds; high organic load
Experimental: as §2

E. faecium = test: as above; format: cell-based; conditions: 0.046% HOCl aqueous solution; 30 seconds; high organic load
Experimental: as §2

P. mirabilis = test: as above; format: cell-based; conditions: 0.046% HOCl aqueous solution; 30 seconds; high organic load
Experimental: as §2

S. marcenscens = test: as above; format: cell-based; conditions: 0.046% HOCl aqueous solution; 30 seconds; high organic load
Experimental: as §2

Acute Dermal Toxicity = format: in vivo; conditions: Albino New Zealand Rabbits, 0.05% HOCl solution, males and females
Description: as §1

Enterovirus-71 (EV-71) = test: Test of viral inactivation, ASTM E1052-96 viruses in suspension; format: cell-based; conditions: 0.04% HOCl aqueous solution; 30 seconds
host cells = conditions: 0.04% HOCl aqueous solution
K. pneumoniae = test: Efficacy at 30 seconds (Table 2); format: cell-based; conditions: 0.01 to 0.05% aqueous solution
Bovine Diarrhea virus = test: Efficacy at 30 seconds (Table 2); format: cell-based; conditions: 0.01 to 0.05% aqueous solution
Human Papillomavirus = test: Efficacy at 30 seconds (Table 2); format: cell-based; conditions: 0.01 to 0.05% aqueous solution
[1] = USP <51> Antimicrobial Effectiveness Testing; format: cell-based; conditions: 0.05% HOCl aqueous solution
Description: A 0.05% HOCl aqueous solution is intended for the cleansing and removal of the most common bacteria and viruses associated with skin-to-skin sexually transmitted diseases (pre and post sexual activity) to promote general sexual hygiene.

Human papilloma virus = test: Antimicrobial efficacy of HOCl skin cleanser (Table 1); format: cell-based; conditions: 0.01% HOCl; 30 seconds
[2] = Absorption through intact skin; format: in vitro ADME; conditions: low concentrations of hypochlorous acid
Description: Thus, the potential for producing skin reactions is extremely low.

Herpes simplex virus = test: Antimicrobial efficacy of HOCl skin cleanser (Table 1); format: cell-based; conditions: 0.01% HOCl; 30 seconds
[3] = test system: Herpes Simplex Virus type 2 (HSV-2); test: Test of viral inactivation, ASTM E1052-96 viruses in suspension; format: cell-based; conditions: 0.04% HOCl aqueous solution; 30 seconds
[4] = Biocompatibility and animal testing, overall; format: in vivo; conditions: 0.05% hypochlorous acid solution
Description: The extensive biocompatibility and animal testing that have been performed supports the safety and efficacy of the 0.05% hypochlorous acid solution. […] Due to the safety of the solution, the hypochlorous acid solution can be used repeatedly without altering or changing the properties of the skin and mucous membranes.

Enterococcus. faecium = test: Antimicrobial efficacy of HOCl skin cleanser (Table 1); format: cell-based; conditions: 0.01% HOCl; 30 seconds
[5] = Fournier's gangrene patient case; format: in vivo, human; conditions: HOCl (0.046%) aqueous solution; one patient; four step surgical process; 24 hours period
Experimental: A HOCl (0.046%) aqueous solution was preformed in a four step surgical process to a patient that was infected with Fournier's gangrene. Skin was removed from the infected area before administering the HOCl solution on the infected areas in a 24 hours period. Following application, skin graphs were placed over the surgical wound for rehabilitation process.

[6] = test system: all microorganisms tested; test: ASTM E2315 Time Kill Assay, summary of Table 3; format: cell-based; conditions: concentration of 0.046%, 30 seconds
Experimental: as §2

[7] = test system: Staphylococcus epidermidis; test: Antimicrobial efficacy of HOCl skin cleanser (Table 1); format: cell-based; conditions: 0.01% HOCl; 30 seconds
Escherichia coli = test: as above; format: cell-based; conditions: 0.01% HOCl; 30 seconds
Campylobacter rectus = test: as above; format: cell-based; conditions: 0.01% HOCl; 30 seconds

With `OCl` [HOCl, hypochlorous acid] the “% Reduction” value (HIV (non-glp)) was 99.999%, the “Log Reduction” value (HIV (non-glp)) was greater than 6.1 Log10 and the “% Reduction” value (Salmonella enteritidis) was 99.999%. For the same molecule, the “Log Reduction” value (Salmonella enteritidis) was greater than 6.4 Log10, the mortalities (Teratogenicity; Oral administration of 1000 mg/Kg/day, Females and Pregnant Wistar rats) was “No mortalities, considered” and the toxicity assessment (Teratogenicity; rat, in vivo, po, 1000 mg/kg/day) was “non-toxic”. The “% Reduction” value (K. pneumoniae NDM-1) was 99.999%, the “Log Reduction” value (K. pneumoniae NDM-1) was greater than 5.59 Log10 and the “% Reduction” value (K. pneumoniae - ESBL) was 99.999%. For the same molecule, the “Log Reduction” value (K. pneumoniae - ESBL) was greater than 5.76 Log10, the “% Reduction” value (K. oxytoca) was 99.999% and the “Log Reduction” value (K. oxytoca) was greater than 5.50 Log10. For the same molecule, the “% Reduction” value (S. Epidermidis) was 99.999%, the “Log Reduction” value (S. Epidermidis) was greater than 5.60 Log10 and the “% Reduction” value (P. aeruginosa) was 99.999%. The “Log Reduction” value (P. aeruginosa) was greater than 5.96 Log10, the “% Reduction” value (A. baumanii) was 99.999% and the “Log Reduction” value (A. baumanii) was greater than 6.15 Log10. The “% Reduction” value (Enterobacter aerogenes) was 99.999%, the “Log Reduction” value (Enterobacter aerogenes) was greater than 5.90 Log10 and the “% Reduction” value (Haemophilus influenzae) was greater than 99.99%. The “Log Reduction” value (Haemophilus influenzae) was greater than 4.81 Log10, the “% Reduction” value (Candida albicans) was 99.999% and the “Log Reduction” value (Candida albicans) was greater than 5.19 Log10. For the same molecule, the “% Reduction” value (E. faecium) was 99.999%, the “Log Reduction” value (E. faecium) was greater than 5.32 Log10 and the “% Reduction” value (P. mirabilis) was 99.999%. The “Log Reduction” value (P. mirabilis) was greater than 5.65 Log10, the “% Reduction” value (S. marcenscens) was 99.999% and the “Log Reduction” value (S. marcenscens) was greater than 5.37 Log10. The “Acute Lethal Dose” value (Acute Dermal Toxicity) was > 5000 mg/kg body weight for males, the “% Reduction” value (Enterovirus-71 (EV-71)) was 99.998% and the “Log Reduction” value (Enterovirus-71 (EV-71)) was 4.83. For the same molecule, the “adverse effects to the host cells” value (host cells) was “no adverse effects to the host cells”, the “% Reduction” value (K. pneumoniae) was 99.999% and the “Log Reduction” value (K. pneumoniae) was greater than 5.46 Log10. For the same molecule, the “% Reduction” value (Bovine Diarrhea virus) was 99.999%, the “Log Reduction” value (Bovine Diarrhea virus) was greater than 5.35 Log10 and the “% Reduction” value (Human Papillomavirus) was 99.999%. For the same molecule, the “Log Reduction” value (Human Papillomavirus) was greater than 5.35 Log10, the “USP <51> Antimicrobial Effectiveness Testing outcome” value [1] was “meets all requirements of USP <51> Antimicrobial Effectiveness Testing” and the “% Reduction” value (Human papilloma virus) was 99.99%. For the same molecule, the “Log Reduction” value (Human papilloma virus) was greater than 6.0 Log10, the “absorption of the compound through intact skin” value [2] was “no evidence of absorption of the compound through intact skin” and the “% Reduction” value (Herpes simplex virus) was 99.99%. For the same molecule, the “Log Reduction” value (Herpes simplex virus) was greater than 5.8 Log10, the “% Reduction” value [3] was 99.9999% and the “Log Reduction” value [3] was 7.53. For the same molecule, the “adverse effects to the skin or mucous membranes” value [4] was “without adverse effects to the skin or mucous membranes”, the “% Reduction” value (Enterococcus. faecium) was 99.99% and the “Log Reduction” value (Enterococcus. faecium) was greater than 6.21 Log10. The “outcome in Fournier's gangrene” value [5] was “prevention of further spread of the disease as well as prevention of amputation and additional complications”, the efficacy [6] was 99.999% and the “% Reduction” value [7] was 99.999%. The “Log Reduction” value [7] was greater than 5.8 Log10, the “% Reduction” value (Escherichia coli) was 99.99% and the “Log Reduction” value (Escherichia coli) was greater than 6.59 Log10. For the same molecule, the “% Reduction” value (Campylobacter rectus) was 99.99% and the “Log Reduction” value (Campylobacter rectus) was greater than 5.96 Log10.
